Experimental findings from patent publication US20030212078A1, “Topical administration of pharmacological compositions for non-systemic treatment of pruritus” (priority 2003, published 2003) are described below.

For data set [1], the system named is patients with pruritus associated with atopic dermatitis. Conditions: human, in vivo. The procedure: In another small uncontrolled and unblinded trial, one group of patients with pruritus associated with atopic dermatitis was treated with a spray (aqueous buffered solution of 40 mg/ml hydroxyzine hydrochloride), which was topically applied to an area of the patients' skin affected by atopic dermatitis. The patients were instructed to spray about 0.1 ml (three pump actions of the manually operated spray bottle) of the composition onto an area of about 10 cm^2 affected by symptomatic itching for up to 5 applications per day for a period of two weeks. A second group of group of patients with pruritus associated with atopic dermatitis was treated with a cream (W/O emulsion containing 2% (wt) hydroxyzine hydrochloride), which was topically applied to an area of the patients' skin affected by atopic dermatitis. The patients were instructed to massage a small portion (about 0.2 gram) into an area of about 10 cm^2 affected by symptomatic itching for up to 5 applications per day for a period of two weeks.

Data set [2] deals with patients with pruritus (neurodermatitis; insect bite). Description: Small, uncontrolled and unblinded trial of hydroxyzine*HCl skin cream in two patients with pruritus. The format is in vivo, human. As to conditions: skin cream comprising 5% (by weight) hydroxyzine*HCl, both patients. The procedure:
In a small, uncontrolled and unblinded trial, two patients with pruritus were treated with a skin cream comprising 5% (by weight) hydroxyzine*HCl. The first patient was diagnosed with neurodermatitis (a non-allergic condition), while the second patient was diagnosed with an insect bite (an allergic condition).

In the case of `CN1CCC(=C2c3ccccc3C=Cc3ccccc32)CC1` [cyproheptadine], the “patients who experienced weight gain of at least 4%” value in data set [1] (2 months) is 5/15.
For `Cl.Cl.OCCOCCN1CCN(C(c2ccccc2)c2ccc(Cl)cc2)CC1` (centres unmarked) [hydroxyzine, 1-(p-chlorobenzhydryl) 4-[2-(2-hydroxyethoxy)-ethyl] piperazine dihydrochloride], the “time to positive result (significant reduction in pruritus)” value in data set [2] amounted to 60 s. In addition, the “positive result (reduction in pruritus)” value in data set [2] (two patients (neurodermatitis, insect bite)) is given as “significant reduction in pruritus”. For the same compound, in data set [1] (2 weeks), the “patients who experienced drowsiness” value is 13/15 and the “patients who experienced transient tachycardia” value is reported as 4/15.
